Tested on: rats
Test: Forced Swimming Test (Depression Test Model)
Format: in vivo
Settings: delivered orally before swim test, all three doses 0.3, 3 and 30 mg/kg, observed for 6 minutes
Excerpt: Forced Swimming Test (Depression Test Model)—Total immobility time of rats can be assessed during a forced swimming test Porsolt, R. D., Anton, G., Blavet, N., Jalfre, M. Behavioral despair in rats, a new model sensitive to antidepressant treatments. Eur. J Pharmacol. 1978, 47, 379-391. A shortened immobility period reflects anti-depressant-like effects of a test compound. MQT compounds were delivered orally to rats before the swim test.

| SMILES | Total immobility time during forced swimming test |
| --- | --- |
| NCCCNCC1CCCN(CC2Cc3c([nH]c4ccccc34)CN2)C1 (centres unmarked) [MQT 2] | reduction in immobility |
| NCCCNC(=O)C1CCCN(C(=O)C2Cc3c([nH]c4ccccc34)CN2)C1 (centres unmarked) [MQT 1] | reduction in immobility |

— US7232831B2, “Tetrahydro-β-carboline compounds and use thereof” (MediQuest Therapeutics, Inc., priority 2004, dated 2007)
